Experimental data: the supplement of paper PMC13380429

Experiments:
Details in all cases: 72 h
[1] = test system: Caco-2; assay: relative viability EC50 (midpoint between 100% and the lowest measured viability); higher = less toxic
[2] = test system: HepG2; assay: as above
[3] = test system: Vero E6; assay: as above
[4] = test system: U2OS; assay: as above
[5] = test system: Calu-3; assay: as above
[6] = test system: Caco-2; assay: drug sensitivity score (DSS) for viability; higher = more toxic; extreme values may be limits of the assay
[7] = test system: HepG2; assay: as above
[8] = test system: Vero E6; assay: as above
[9] = test system: U2OS; assay: as above
[10] = test system: Calu-3; assay: as above
[11] = test system: Caco-2; assay: cell viability relative to DMSO; higher = less toxic
[12] = test system: HepG2; assay: as above
[13] = test system: Vero E6; assay: as above
[14] = test system: U2OS; assay: as above
[15] = test system: Calu-3; assay: as above

Row | SMILES | relative viability EC50 [1] [µM] | relative viability EC50 [2] [µM] | relative viability EC50 [3] [µM] | relative viability EC50 [4] [µM] | relative viability EC50 [5] [µM] | drug sensitivity score [6] | drug sensitivity score [7] | drug sensitivity score [8] | drug sensitivity score [9] | drug sensitivity score [10] | cell viability ([11]; 1 nM) [%] | cell viability ([11]; 10 nM) [%] | cell viability ([11]; 100 nM) [%] | cell viability ([11]; 1000 nM) [%] | cell viability ([11]; 10000 nM) [%] | cell viability ([12]; 1 nM) [%] | cell viability ([12]; 10 nM) [%] | cell viability ([12]; 100 nM) [%] | cell viability ([12]; 1000 nM) [%] | cell viability ([12]; 10000 nM) [%] | cell viability ([13]; 1 nM) [%] | cell viability ([13]; 10 nM) [%] | cell viability ([13]; 100 nM) [%] | cell viability ([13]; 1000 nM) [%] | cell viability ([13]; 10000 nM) [%] | cell viability ([14]; 1 nM) [%] | cell viability ([14]; 10 nM) [%] | cell viability ([14]; 100 nM) [%] | cell viability ([14]; 1000 nM) [%] | cell viability ([14]; 10000 nM) [%] | cell viability ([15]; 1 nM) [%] | cell viability ([15]; 10 nM) [%] | cell viability ([15]; 100 nM) [%] | cell viability ([15]; 1000 nM) [%] | cell viability ([15]; 10000 nM) [%]
1 | COc1cc(NC(=O)c2cccc(-n3cc(NC(=O)Nc4cccc(C)c4)cn3)c2)cc(OC)c1OC [SR-3576] | > 10 | > 10 | > 10 | > 10 | > 10 | 1.3 | 0 | 0 | 0 | 0.6 | 104 | 105 | 101 | 85.2 | 87.7 | 98.3 | 99.4 | 94.1 | 95.3 | 99.4 | 101 | 102 | 97.2 | 96.6 | 95.9 | 100 | 102 | 100 | 99.6 | 91.1 | 91.1 | 93.9 | 93.4 | 93.1 | 81
2 | Cc1sc(C)c2c1CCC=C2c1c[nH]cn1 [TC-G-1000] | > 10 | > 10 | > 10 | > 10 | > 10 | 0 | 0 | 0 | 0 | 0 | 106 | 93.3 | 100 | 99.2 | 94.6 | 111 | 108 | 111 | 97 | 104 | 103 | 96.4 | 100 | 99.9 | 96.7 | 101 | 96.8 | 95.6 | 102 | 97 | 102 | 97.3 | 102 | 97.2 | 102
